Tests used:
[1] = target: T1, EEF1A1 Elongation factor 1-alpha 1 (Homo sapiens, UniProt P68104); assay: competitive isoTOP-ABPP; type: binding; conditions: for isoTOP-ABPP reactivity ratio at lysine P68104_K84 / isoTOP-ABPP ratio (R) at liganded lysine P68104_K84: 50 uM, in vitro; for isoTOP-ABPP reactivity ratio at lysine P68104_K84: 231 sol; for isoTOP-ABPP ratio (R) at liganded lysine P68104_K84: sol, 231; for isoTOP-ABPP ratio, lysine P68104_K84: 100 uM_231_sol_in vitro
T1 construct: isoTOP-ABPP experiments performed in cell lysates (in vitro); endogenous in cells; host or cells: soluble proteome of human cancer cell lines (MDA-MB-231, Ramos, Jurkat)
T1 sequence (P68104 1-462): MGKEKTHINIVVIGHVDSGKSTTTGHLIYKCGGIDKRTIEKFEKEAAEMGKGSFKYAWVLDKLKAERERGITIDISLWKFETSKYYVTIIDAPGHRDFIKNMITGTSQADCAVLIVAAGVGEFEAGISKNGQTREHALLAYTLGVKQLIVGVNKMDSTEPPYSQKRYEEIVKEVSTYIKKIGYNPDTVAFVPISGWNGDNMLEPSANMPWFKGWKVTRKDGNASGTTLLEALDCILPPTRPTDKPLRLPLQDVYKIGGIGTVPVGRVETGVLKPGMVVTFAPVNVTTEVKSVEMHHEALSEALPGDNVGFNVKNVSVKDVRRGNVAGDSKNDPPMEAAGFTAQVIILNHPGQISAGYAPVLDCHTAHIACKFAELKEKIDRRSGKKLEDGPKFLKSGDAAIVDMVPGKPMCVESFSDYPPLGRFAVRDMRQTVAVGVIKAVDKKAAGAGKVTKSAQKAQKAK
In short: (§1)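 Readout: isotopic light/heavy MS1 peak-area ratio (R, DMSO heavy over compound light), median across peptides sharing a modified lysine. Lysate received fragment (activated esters 50 μM, guanidinylating agents 100 μM final) or DMSO, then 0.1 mM STP-alkyne probe for 1 h at ambient temperature.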

[2] = target: T2, SFXN1 Sideroflexin-1 (Homo sapiens, UniProt Q9H9B4); assay: competitive isoTOP-ABPP; type: binding; conditions: for isoTOP-ABPP reactivity ratio at lysine Q9H9B4_K170 / isoTOP-ABPP ratio (R) at liganded lysine Q9H9B4_K170: 50 uM, in vitro; for isoTOP-ABPP reactivity ratio at lysine Q9H9B4_K170: 231 sol; for isoTOP-ABPP ratio (R) at liganded lysine Q9H9B4_K170: sol, 231
T2 construct: endogenous in cells; host or cells: MDA-MB-231 lysate
T2 sequence (Q9H9B4 1-322): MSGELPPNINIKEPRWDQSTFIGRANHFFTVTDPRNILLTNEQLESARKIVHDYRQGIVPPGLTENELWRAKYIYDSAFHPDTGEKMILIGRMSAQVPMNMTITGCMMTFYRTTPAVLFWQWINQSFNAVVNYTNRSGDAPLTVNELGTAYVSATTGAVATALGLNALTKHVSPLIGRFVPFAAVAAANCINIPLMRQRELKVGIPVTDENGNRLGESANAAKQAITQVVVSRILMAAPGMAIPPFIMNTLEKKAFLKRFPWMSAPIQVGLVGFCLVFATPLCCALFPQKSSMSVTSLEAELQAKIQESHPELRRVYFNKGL
In short: as §1

O=C(CCc1cn(-c2ccccc2)nc1-c1ccccc1)Oc1ccc([N+](=O)[O-])cc1[N+](=O)[O-] [fragment 29, 2,4-Dinitrophenyl 3-(1,3-diphenyl-1H-pyrazol-4-yl)propanoate]
isoTOP-ABPP reactivity ratio at lysine P68104_K84 [1]: 20.0
isoTOP-ABPP reactivity ratio at lysine Q9H9B4_K170 [2]: 20.0

O=C(Oc1ccc([N+](=O)[O-])cc1[N+](=O)[O-])C(c1ccccc1)c1ccccc1 [fragment 30, 2,4-Dinitrophenyl 2,2-diphenylacetate]
isoTOP-ABPP reactivity ratio at lysine P68104_K84 [1]: 0.5
isoTOP-ABPP reactivity ratio at lysine Q9H9B4_K170 [2]: 4.5

O=C(Oc1ccc([N+](=O)[O-])cc1[N+](=O)[O-])c1cc(C(F)(F)F)cc(C(F)(F)F)c1 [fragment 31, 2,4-Dinitrophenyl 3,5-bis(trifluoromethyl)benzoate]
isoTOP-ABPP reactivity ratio at lysine P68104_K84 [1]: 0.4

Cn1cc(CC(=O)Oc2ccc([N+](=O)[O-])cc2[N+](=O)[O-])c2ccccc21 [fragment 32, 2,4-Dinitrophenyl 2-(1-methyl-1H-indol-3-yl)acetate]
isoTOP-ABPP reactivity ratio at lysine P68104_K84 [1]: 0.4
isoTOP-ABPP reactivity ratio at lysine Q9H9B4_K170 [2]: 8.6

O=C(CCc1coc2cc(F)ccc2c1=O)Oc1ccc([N+](=O)[O-])cc1[N+](=O)[O-] [fragment 36, 2,4-Dinitrophenyl 3-(7-fluoro-4-oxo-4H-chromen-3-yl)propanoate]
isoTOP-ABPP ratio (R) at liganded lysine P68104_K84 [1]: 0.7

O=C(Oc1ccc([N+](=O)[O-])cc1[N+](=O)[O-])c1ccc(-c2ccccc2)cc1 [fragment 37, 2,4-Dinitrophenyl [1,1′-biphenyl]-4-carboxylate]
isoTOP-ABPP ratio (R) at liganded lysine P68104_K84 [1]: 20.0

O=C(CC12CC3CC(CC(C3)C1)C2)Oc1ccc([N+](=O)[O-])cc1[N+](=O)[O-] [fragment 38, 2,4-Dinitrophenyl 2-(adamantan-1-yl)acetate]
isoTOP-ABPP ratio (R) at liganded lysine Q9H9B4_K170 [2]: 1.9

CC(C)(C)OC(=O)NCCCC(=O)Oc1ccc([N+](=O)[O-])cc1[N+](=O)[O-] [fragment 41, 2,4-Dinitrophenyl 4-((tert-butoxycarbonyl)amino)butanoate]
isoTOP-ABPP ratio (R) at liganded lysine Q9H9B4_K170 [2]: 2.5

CC(=O)Oc1ccc([N+](=O)[O-])cc1[N+](=O)[O-] [fragment 43, 2,4-Dinitrophenyl acetate]
isoTOP-ABPP ratio (R) at liganded lysine P68104_K84 [1]: 0.7

N#Cc1ccc(C(=O)Oc2ccc([N+](=O)[O-])cc2[N+](=O)[O-])cc1 [fragment 44, 2,4-Dinitrophenyl 4-cyanobenzoate]
isoTOP-ABPP ratio, lysine Q9H9B4_K170 ([2]; 50 uM_231_sol_in vitro): 0.9

O=C(CCc1ccc2c(c1)OCO2)Oc1ccc([N+](=O)[O-])cc1[N+](=O)[O-] [fragment 45, 2,4-Dinitrophenyl 3-(benzo[d][1,3]dioxol-5-yl)propanoate]
isoTOP-ABPP ratio, lysine Q9H9B4_K170 ([2]; 50 uM_231_sol_in vitro): 2.1

O=C(ON1C(=O)CCC1=O)c1cc(C(F)(F)F)cc(C(F)(F)F)c1 [fragment 46, 3,5-Bis(trifluoromethyl)benzoic acid NHS ester]
isoTOP-ABPP ratio, lysine Q9H9B4_K170 ([2]; 50 uM_231_sol_in vitro): 0.9

COC(=O)NC(=NC(=O)OCC1c2ccccc2-c2ccccc21)n1cccn1 [fragment 49, N-Methoxycarbonyl-N′-9-fluorenylmethoxycarbonyl-pyrazole-1-carboxamidine]
isoTOP-ABPP ratio, lysine P68104_K84 [1]: 1.2

CC(C)(C)OC(=O)N=C(NC(=O)OC(C)(C)C)n1cccn1 [fragment 50, reference compound]
isoTOP-ABPP ratio, lysine P68104_K84 [1]: 1.3
isoTOP-ABPP ratio, lysine Q9H9B4_K170 ([2]; 100 uM_231_sol_in vitro): 1.9

— US20210255193A1, “LYSINE REACTIVE PROBES AND USES THEREOF” (The Scripps Research Institute, priority 2017, published 2021)
